Assay results: patent US5866576A, “Epoxide-containing compounds” (Cell Therapeutics, Inc., priority 1997, dated 1999)
Entries after “also recorded” stand apart in the source; their conditions may differ.

Experiments:
[1] = test system: lymph node cells; assay: ovalbumin-induced proliferation in murine lymph cells (FIG. 13); assay type: cell-based, Balb/C mice; conditions: Mus musculus, OVA 200 μg/ml
Description: This example illustrates effects of the inventive compounds on ovalbumin-induced proliferation in murine lymph cells. Lymphnode cells contain a mixture of lymphoid cells: T-cells, B-cells and macrophages. Although proliferating cells in this assay are T-cells, the response obtained depends on type of antigen-presenting cell (e.g., macrophages) as well as elaboration of various immunoregulatory cytokines. Thus, this assay serves as a good model for T-cell mediated responses and as a valuable screening tool in identifying compounds useful in immunosuppressive therapeutic applications.
Murine T-cells proliferate in vitro in response to a soluble protein antigen if first primed with a corresponding antigen in vivo. This in vivo priming usually involves emulsifying the antigen in complete Freunds adjuvant and injecting this preparation into an appropriate site on a mouse. In this assay the antigen employed was chicken ovalbumin(OVA). Following emulsification in Freund's complete adjuvant, 50 μg of OVA were injected into both hind footpads of adult Balb/C mice. Fourteen days later the draining lymph nodes(popliteal) were removed and a single cell suspension was prepared in RPMI-1640 (10%FCS) medium. Two hundred thousand lymph node cells are then plated into wells of flat-bottom 96-well plates. Inventive compouds nos. 1410, 1553 (racemic), 1553(S), 1560 and 1565 were added to appropriate wells at various concentrations. OVA, at a final concentration of 200 μg/ml, was added to appropriate wells. Positive and negative controls were established on each plate, all assay variables being set up in quadruplicate.
The plates were incubated in a humidified, 5% CO2 incubator for 5 days. On the fifth day, 1 μCi of tritiated thymidine was added to each well and the plates were incubated for an additional 4 hours. The plates were harvested and the incorporation of 3H-TdR was determined in a liquid scintillation counter. The CPM data was then used to calculate experimental IC50 values for the compounds tested. Again, IC50 is defined as that concentration of compound resulting in 50% inhibition of 3H-TdR incorporation of the positive control.

[2] = test system: murine splenocytes; assay: murine splenocyte proliferation co-stimulated by anti-mu and IL-4 (FIG. 11); assay type: cell-based; conditions: Mus musculus, anti-mu / IL-4 12.5 ng/ml
Protocol: This example illustrates inhibitive effects of compounds nos. 1439, 1553S, 1560 and 1565 on murine splenocyte proliferation co-stimulated by anti-mu ([…]) and interleukin-4 (IL-4, 12.5 ng/ml). This in vitro assay, described above, is indicative of immune-suppressive/autoimmune treatment assay emphasizing humoral or B cell immune response. This assays are a predictive model for treatment or prevention of autoimmune diseases, such as diabetes, lupus, arthritis, and the like. The assay measures immunosuppressive activity of a drug at the B cell level. Spleens from adult mice contain immature B cells that express surface IgM. Cross-linking the surface IgM with an anti-mu antibody results in B cell proliferation. Additionally, this activation results in an increased expression of interleukin-4 receptors(IL-4R) on the surface of such cells. IL-4 acts as a growth factor for B cells and will increase the amount of proliferation induced by anti-mu.
A mixture of anti-mu and murine IL-4 is added to murine splenocytes to cause their proliferation. Mice spleens are obtained from adult mice and a single cell suspension is prepared in RPMI 1640 medium supplemented with 10% FCS. Cells (200,000) are plated into flat-bottomed wells and pre-incubated for 1-2 hours with various concentrations of inventive compound or PBS if it is a control. A mixture of anti-mu and murine is added to the wells at a final concentration of 5 μg/ml anti-mu and 12.5 ng/ml IL-4 and plates are incubated for three days. Proliferation is determined on the third day with a pulse of tritiated thymidine. The IC50 concentration of a particular drug is the concentration of drug that results in a 50% inhibition of the proliferation obtained from the positive control.

[3] = test system: thymocytes; assay: murine thymocyte proliferation assay co-stimulated by ConA and IL-2 (FIGS. 7A-7E); assay type: cell-based, Balb/C mice; conditions: Mus musculus
Description: This example illustrates dose response curves used to generate 50% inhibition concentrations (IC50) for inventive compounds nos. 1410, 1439, 1541, 1553, 1553S, 1560, 1565, 2548R, 2548S and 2562 in a murine thymocyte proliferation assay, co-stimulated by Concanavalin A (ConA) and interleukin-2 alpha (IL-2). ConA, used to activate the T-cell receptor (TCR), along with IL-2 co-stimulation, induces T-cell proliferation and differentiation. Thymuses, obtained from normal, female Balb/C mice, were dissociated and plated into 96-well plates at a density of 2×10^5 cells/well. ConA (0.25 mg/ml) and IL-2 (15 U/ml) were added to the wells. The cells were incubated for 4 days at 37° C. On day 4, the cells were pulsed with tritiated thymidine and incubated for an additional 4 hours. The amount of tritiated thymidine incorporated by the harvested cells was determined in a liquid scintillation counter. Doses of inventive compounds (shown in FIGS. 7A-7E) were added two hours prior to ConA and IL-2 activation. Background counts were less than 200 cpm. Results obtained, illustrate the ability of the inventive compounds to inhibit thymocyte proliferation and activation. In FIG. 7A, inventive compounds nos. […] FIG. 7B presents additional data for compound no. 1410 and 1553S in this assay. […] FIG. 7C reports assay results for inventive compounds nos. 1439, 1541, 1560 and 1565. […] FIGS. 7D and 7E illustrate assay results for inventive compounds nos. 1541, 1553, 1560 and 1565 (FIG. 7D) and 2562, […] (FIG. 7E). As is true of other inventive compounds tested, all these compounds represented in FIGS. 7D and 7E inhibit thymocyte proliferation. […] 1541, 1553, 1560, 1565, 2562, 2548R and 2548S, respectively.

[4] = test system: thymocytes; assay: IL-2 (ConA co-stimulated) induced proliferation of thymocytes; assay type: cell-based, mice; conditions: Mus musculus, Thymocyte, 96 h; Table II; ConA 0.25 ug/ml / IL2 20 ng/ml, 4 days
Protocol: This example illustrates the effects of inventive compounds nos. 1105, 1114, 1413, 1439, 1594, 2518, 2548R, 2548S, 2562 and 3503 as effective inhibitors of IL-2 induced proliferation of thymocytes. Single cell suspensions of thymus gland cells obtained from 4-6 week old mice were prepared. Two-hundred thousand cells were plated into individual wells of flat-bottom 96-well plates in RPMI-1640-10% FCS medium. The invention compounds were then added to the wells at varying concentrations and the cells incubated for 1-2 hours at 37° C.
Following this pre-incubation a mixture of Concanavalin A (ConA) and Interleukin-2 (IL2) was added to the experimental wells at a final concentration of (0.25 ug/ml ConA)/(20 ng/ml IL2). Appropriate positive and negative controls were set up on each plate. Each variable was set up in quadruplicate.
The plates were incubated for 4 days at 37° C. in a humidified CO2 incubator. On day 4 the wells were pulsed with 1 μCi of tritiated thymidine(3H-TdR) and the plates incubated for an additional 4 hours. The plates were then harvested and the incorporation of 3H-TdR was determined in a liquid scintillation counter. From the CPM obtained from each experimental well an IC-50 for each inventive compound tested was determined. Therefore, a lower reported IC-50 value is indicative of greater inhibition of IL-2-induced proliferation of thymocytes. Table II illustrates IC-50 values (in μM) for inventive compounds inhibiting proliferation at very low concentrations of compound.

[5] = test system: normal human bone marrow stromal cells (MSC); assay: human bone marrow stromal cell (MSC) proliferation in response to PDGF BB and IL-1α; assay type: cell-based; conditions: Table III, PDGF BB 50 ng/ml and IL-1α 10 ng/ml
Protocol: This example illustrates the effects of inventive compounds nos. 1114, 1413, 1560, 1565, 1594, 2518, 2548R, 2548S and 3503 as effective inhibitors of normal human bone marrow stromal cells (MSC) proliferation in response to Platelet Derived Growth Factor BB (PDGF B) and IL-1α (50 and 10 ng/ml, respectively).
MSC were obtained and malintained in exponential growth, released from a growth plate with trypsin and plated into 96 well tissue culture plates in the presence of Fibroblast Growth Factor (FGFβ) for 48 hours. Growth media were removed and the cells were washed once with serum free media. The cells were then incubated 20-24 hours in serum free media.
After incubation, inventive compounds were added to the cells at the appropriate concentration and then the cells again incubated for 1 hour. PDGF B and IL-1α were added to the cells along with 3H-thymidine and the cells again incubated for an additional 24 hours.
After 24 hours of incubation, the cells were then harvested to assess incorporation of ^3 H-thymidine into DNA (proliferation). From each harvested cell culture, an IC-50 for each inventive compound tested was determined. Therefore, a lower reported IC-50 value is indicatilve of greater activity of the invention compounds in inhibiting MSC proliferation. Table III illustrates IC-50 values (in μM) for invention compounds inhibiting MSC proliferation at very low concentrations of compound.

[6] = test system: hair follicles / skin of nu/nu (nude) mice; assay: hair growth stimulation in nude mice, topical, skin biopsies; assay type: in vivo
Description: This example illustrates the effects of inventive compound no. 1541 as hair growth stimulant in nude mice. In a procedure similar to that used in a commercial model for predicting human hair-growing ability of minoxidil, nu/nu (nude) mice were painted twice daily for 16 days on the right flank with compound no. 1541 using sterile applicators. Researches handled the mice under a laminar flow hood with applicator, wearing face mask and sterile gloves.
After 16 days, one mouse was sacrificed by cervical dislocation and skin biopsies taken from the treated areas of the shoulder/flank and the non-treated area of the dorsal pelvis (rump). Specimens were placed in 10% buffered formalin solution.
Six weeks following treatment, a second mouse was euthanatized and biopsied the same as previous mouse after 16 days.

SMILES | IC50 [4] [µM] | IC50 [5] [µM] | IC50 ([3]; FIGS. 7D and 7E) [µM] | further results
Cn1cnc2c1c(=O)n(CCCCCC[C@H]1CO1)c(=O)n2C [Compound 1553S, 1-(7(5)-7,8-Oxidooctyl)-3,7-dimethylxanthine] | – | – | – | IC50 [1]: 43 µM; IC50 [2]: 50 µM; IC50 ([3]; FIG. 7B): 46 µM
Cn1cnc2c1c(=O)n(CCCCCCCCCCCCC1CO1)c(=O)n2C (stereo not shown) [Compound 3503, 1-(13,14-Oxidotetradecyl)-3,7-dimethylxanthine] | 10 | 14 | – | –
C=CCCCCn1c(=O)c2c(ncn2C)n(C)c1=O [Compound 1539, 1-(5-Hexenyl)-3,7-dimethylxanthine] | – | 18 | – | –
Cn1cnc2c1c(=O)n(CCCCC1CO1)c(=O)n2C (stereo not shown) [Compound 1541, 1-(5,6-Oxidohexyl)-3,7-dimethylxanthine] | – | – | 57 | skin histology findings (inflammatory cells) ([6]; after 16 days, also a few in untreated areas): mild accumulations of mixed inflammatory cells in the dermis; hair/follicle findings six weeks following treatment ([6]; six weeks following treatment): confirmed hair loss; also recorded: slightly straighter superficial portions of follicles with less curling of hair shafts; also recorded: the subcutis contained active anagen bulbs located deeply in the subcutis; skin histology findings (acanthosis) ([6]; six weeks following treatment): slightly more acanthosis (epidermal hyperplasta) in treated areas; hair follicles and hair shafts in treated areas ([6]; topical, twice daily, 16 days, biopsy at 16 days): follicles in the treated areas had hair shafts which sometimes exit to the surface; also recorded: more normal appearing hair follicles than the untreated sections; also recorded: numerous hair shafts were seen exiting follicles in the treated sections; IC50 ([3]; FIG. 7C): 70 µM
O=C1Cc2ccccc2C(=O)N1CCCCCCCCCC1CO1 (stereo not shown) [Compound 1114, N-(10,11-Oxidoundecyl) homophthalimide] | 10 | 5.1 | – | –
Cn1c(=O)n(CCCCCCCCCC2CO2)c(=O)c2[nH]cnc21 (stereo not shown) [Compound 1413, 1-(11,10-Oxidoundecyl)-3-methylxanthine] | 7.7 | 3.7 | – | –
Cn1c(=O)n(CCCCC2CO2)c(=O)c2c1ncn2COC(=O)C(C)(C)C (stereo not shown) [Compound 1410] | – | – | – | IC50 [1]: 55 µM; IC50 ([3]; FIG. 7A): 68 µM; IC50 ([3]; FIG. 7B): 62 µM
Cn1cnc2c1c(=O)n(CCCCCCCCC1CO1)c(=O)n2C (stereo not shown) [Compound 1565, 1-(9,10-Oxidodecyl)-3,7-dimethylxanthine] | – | 17 | 30 | IC50 [1]: 38 µM; IC50 [2]: 40 µM; IC50 ([3]; FIG. 7C): 32 µM
Cn1cnc2c1c(=O)n(CCCCCCC1CO1)c(=O)n2C (racemic) [Compound 1553, 1-(7,8-Oxidooctyl)-3,7-dimethylxanthine] | – | – | 29 | IC50 [1]: 45 µM
Cn1c(=O)n(CCCCC2CO2)c(=O)c2[nH]cnc21 (stereo not shown) [Compound 1439, 1-(5,6-Oxidohexyl)-3-methylxanthine] | 8 | – | – | IC50 [2]: 31 µM; IC50 ([3]; FIG. 7C): < 25 µM
C[C@@H](CCCn1c(=O)c2c(ncn2C)n(C)c1=O)CCC1OC1(C)C (stereo partly drawn) [Compound 2548R, 1-(4-(R)-Methyl-7,8-oxido-8-methylnonyl)-3,7-dimethylxanthine] | 7.5 | 8.7 | 16 | –
C[C@H](CCCn1c(=O)c2c(ncn2C)n(C)c1=O)CCC1OC1(C)C (stereo partly drawn) [Compound 2548S, 1-(4-(S)-Methyl-7,8-oxide-8-methylnonyl)-3,7-dimethylxanthine] | 4.6 | 5.9 | 21 | –
O=C1c2ccccc2C(=O)N1CCCCCCCC1CO1 (stereo not shown) [Compound 1105, N-(8,9-Oxidononyl) phthalimide] | 8.5 | – | – | –
Cn1cnc2c1c(=O)n(CCCCCCCCCC1CO1)c(=O)n2C (stereo not shown) [Compound 1594] | 8.5 | 14 | – | –
Cn1cnc2c1c(=O)n(CCCCCCCCCCCC1CO1)c(=O)n2C (stereo not shown) [Compound 2562, 1-(12,13-Oxidotridecyl)-3,7-dimethylxanthine] | 3.1 | – | 20 | –
